Test results published in PubChem BioAssay (NCI).
Values joined by “and” are separate entries in the source; they are usually repeats but may differ in a detail not shown here. Equal values may be shown once.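 Test compounds were applied to cells in 96-well plates for 48 hours at 5 doses. GI50 is the concentration that inhibits growth by half. TGI marks complete inhibition of growth.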

Assays:
Assay in all cases: DTP human tumour cell line panel, 48 h; in the data active = GI50 below about 0.43 µM; inactive = the rest
HCC-2998 colon = test system: HCC-2998 colon
SNB-19 CNS = test system: SNB-19 CNS
SF-539 CNS = test system: SF-539 CNS
A498 renal = test system: A498 renal
SF-295 CNS = test system: SF-295 CNS
SNB-75 CNS = test system: SNB-75 CNS
UACC-257 melanoma = test system: UACC-257 melanoma
NCI-H460 lung = test system: NCI-H460 lung
HCT-15 colon = test system: HCT-15 colon
LOX IMVI melanoma = test system: LOX IMVI melanoma
MOLT-4 leukemia = test system: MOLT-4 leukemia
SF-268 CNS = test system: SF-268 CNS
NCI-H23 lung = test system: NCI-H23 lung
SN12C renal = test system: SN12C renal
HOP-62 NSCLC = test system: HOP-62 NSCLC
M14 melanoma = test system: M14 melanoma
SK-MEL-5 melanoma = test system: SK-MEL-5 melanoma
LXFL 529 NSCLC = test system: LXFL 529 NSCLC
OVCAR-3 ovarian = test system: OVCAR-3 ovarian
HL-60(TB) leukemia = test system: HL-60(TB) leukemia
EKVX NSCLC = test system: EKVX NSCLC
SR leukemia = test system: SR leukemia
IGROV1 ovarian = test system: IGROV1 ovarian
SK-MEL-28 melanoma = test system: SK-MEL-28 melanoma
DLD-1 colon = test system: DLD-1 colon
HCT-116 colon = test system: HCT-116 colon
U251 CNS = test system: U251 CNS
OVCAR-5 ovarian = test system: OVCAR-5 ovarian
TK-10 renal = test system: TK-10 renal
HOP-18 NSCLC = test system: HOP-18 NSCLC
UACC-62 melanoma = test system: UACC-62 melanoma
KM12 colon = test system: KM12 colon
A549 NSCLC = test system: A549 NSCLC
HOP-92 NSCLC = test system: HOP-92 NSCLC
MALME-3M melanoma = test system: MALME-3M melanoma
XF 498 CNS = test system: XF 498 CNS
KM20L2 colon = test system: KM20L2 colon
CAKI-1 renal = test system: CAKI-1 renal
DMS 114 small cell lung = test system: DMS 114 small cell lung
OVCAR-4 ovarian = test system: OVCAR-4 ovarian
K-562 leukemia = test system: K-562 leukemia
RXF 393 renal = test system: RXF 393 renal
HT29 colon = test system: HT29 colon
OVCAR-8 ovarian = test system: OVCAR-8 ovarian
RPMI-8226 leukemia = test system: RPMI-8226 leukemia
CCRF-CEM leukemia = test system: CCRF-CEM leukemia
COLO 205 colon = test system: COLO 205 colon
M19-MEL melanoma = test system: M19-MEL melanoma
786-0 renal = test system: 786-0 renal
NCI-H226 lung = test system: NCI-H226 lung
ACHN renal = test system: ACHN renal
SW-620 colon = test system: SW-620 colon
UO-31 renal = test system: UO-31 renal
DMS 273 small cell lung = test system: DMS 273 small cell lung
SK-OV-3 ovarian = test system: SK-OV-3 ovarian
SNB-78 CNS = test system: SNB-78 CNS
SK-MEL-2 melanoma = test system: SK-MEL-2 melanoma
RXF-631 renal = test system: RXF-631 renal
T-47D breast = test system: T-47D breast
MDA-N = test system: MDA-N
DU-145 prostate = test system: DU-145 prostate
BT-549 breast = test system: BT-549 breast
MDA-MB-435 = test system: MDA-MB-435
MCF7 breast = test system: MCF7 breast
PC-3 prostate = test system: PC-3 prostate
MDA-MB-231 breast = test system: MDA-MB-231 breast
HS 578T breast = test system: HS 578T breast
NCI-H522 lung = test system: NCI-H522 lung
NCI/ADR-RES ovarian = test system: NCI/ADR-RES ovarian

N#Cc1ccccc1NC(=O)C(=O)C1NC(=S)NC1=O (configuration not stated)
> 100 µM: TGI (HCC-2998 colon) | TGI (SNB-19 CNS) | TGI (SF-539 CNS) | TGI (A498 renal) | TGI (SF-295 CNS) | TGI (SNB-75 CNS) | TGI (UACC-257 melanoma) | TGI (NCI-H460 lung) | TGI (HCT-15 colon) | TGI (LOX IMVI melanoma) | TGI (MOLT-4 leukemia) | TGI (SF-268 CNS) | TGI (NCI-H23 lung) | TGI (SN12C renal) | TGI (HOP-62 NSCLC) | TGI (M14 melanoma) | TGI (SK-MEL-5 melanoma) | TGI (LXFL 529 NSCLC) | TGI (OVCAR-3 ovarian) | TGI (HL-60(TB) leukemia) | TGI (EKVX NSCLC) | TGI (SR leukemia) | TGI (IGROV1 ovarian) | TGI (SK-MEL-28 melanoma) | TGI (DLD-1 colon) | TGI (HCT-116 colon) | TGI (U251 CNS) | TGI (OVCAR-5 ovarian) | TGI (TK-10 renal) | TGI (HOP-18 NSCLC) | TGI (UACC-62 melanoma) | TGI (KM12 colon) | TGI (A549 NSCLC) | TGI (HOP-92 NSCLC) | TGI (MALME-3M melanoma) | TGI (XF 498 CNS) | TGI (KM20L2 colon) | TGI (CAKI-1 renal) | TGI (DMS 114 small cell lung) | TGI (OVCAR-4 ovarian) | TGI (K-562 leukemia) | TGI (RXF 393 renal) | TGI (HT29 colon) | TGI (OVCAR-8 ovarian) | TGI (RPMI-8226 leukemia) | TGI (CCRF-CEM leukemia) | TGI (COLO 205 colon) | TGI (M19-MEL melanoma) | TGI (786-0 renal) | TGI (NCI-H226 lung) | TGI (ACHN renal) | TGI (SW-620 colon)

Cc1ccc(C)c(N2C(=O)C(=O)C(c3nc4ccccc4o3)C(=O)C2=O)c1
95.4 µM: TGI (COLO 205 colon)
> 100 µM: TGI (HCC-2998 colon) | TGI (SNB-19 CNS) | TGI (SF-539 CNS) | TGI (A498 renal) | TGI (SF-295 CNS) | TGI (SNB-75 CNS) | TGI (UACC-257 melanoma) | TGI (UO-31 renal) | TGI (NCI-H460 lung) | TGI (HCT-15 colon) | TGI (MOLT-4 leukemia) | TGI (DMS 273 small cell lung) | TGI (SF-268 CNS) | TGI (NCI-H23 lung) | TGI (SK-OV-3 ovarian) | TGI (SN12C renal) | TGI (HOP-62 NSCLC) | TGI (M14 melanoma) | TGI (SK-MEL-5 melanoma) | TGI (LXFL 529 NSCLC) | TGI (OVCAR-3 ovarian) | TGI (SNB-78 CNS) | TGI (EKVX NSCLC) | TGI (SR leukemia) | TGI (IGROV1 ovarian) | TGI (SK-MEL-28 melanoma) | TGI (U251 CNS) | TGI (TK-10 renal) | TGI (HOP-18 NSCLC) | TGI (UACC-62 melanoma) | TGI (KM12 colon) | TGI (A549 NSCLC) | TGI (HOP-92 NSCLC) | TGI (MALME-3M melanoma) | TGI (KM20L2 colon) | TGI (CAKI-1 renal) | TGI (DMS 114 small cell lung) | TGI (OVCAR-4 ovarian) | TGI (SK-MEL-2 melanoma) | TGI (RXF 393 renal) | TGI (HT29 colon) | TGI (OVCAR-8 ovarian) | TGI (CCRF-CEM leukemia) | TGI (M19-MEL melanoma) | TGI (786-0 renal) | TGI (RXF-631 renal) | TGI (NCI-H226 lung) | TGI (ACHN renal) | TGI (SW-620 colon)
61.3 µM: TGI (HL-60(TB) leukemia)
90.5 µM: TGI (HCT-116 colon)
65.6 µM: TGI (DLD-1 colon)

Cc1ccc([N+](=O)[O-])c2c(NCCNC(=O)c3cc(C(=O)NCCNc4ccnc5c(C)ccc([N+](=O)[O-])c45)n(C)n3)ccnc12
53.4 µM: TGI (SW-620 colon)
> 87.3 µM: TGI (SNB-75 CNS)
> 21.5 µM: TGI (MCF7 breast)
> 83 µM: TGI (UACC-62 melanoma)
> 78 µM: TGI (SK-MEL-28 melanoma)
> 70.9 µM: TGI (SN12C renal)
78.3 µM: TGI (RPMI-8226 leukemia)
> 100 µM: TGI (T-47D breast) | TGI (HCC-2998 colon) | TGI (SNB-19 CNS) | TGI (SF-539 CNS) | TGI (A498 renal) | TGI (SF-295 CNS) | TGI (UACC-257 melanoma) | TGI (UO-31 renal) | TGI (NCI-H460 lung) | TGI (HCT-15 colon) | TGI (SF-268 CNS) | TGI (NCI-H23 lung) | TGI (SK-OV-3 ovarian) | TGI (M14 melanoma) | TGI (DU-145 prostate) | TGI (OVCAR-3 ovarian) | TGI (BT-549 breast) | TGI (EKVX NSCLC) | TGI (IGROV1 ovarian) | TGI (HCT-116 colon) | TGI (U251 CNS) | TGI (PC-3 prostate) | TGI (OVCAR-5 ovarian) | TGI (TK-10 renal) | TGI (KM12 colon) | TGI (HOP-92 NSCLC) | TGI (HS 578T breast) | TGI (CAKI-1 renal) | TGI (SK-MEL-2 melanoma) | TGI (RXF 393 renal) | TGI (HT29 colon) | TGI (OVCAR-8 ovarian) | TGI (COLO 205 colon) | TGI (NCI-H522 lung) | TGI (NCI-H226 lung) | TGI (ACHN renal) | TGI (NCI/ADR-RES ovarian)
> 73.3 µM: TGI (OVCAR-4 ovarian)
98.2 µM: TGI (786-0 renal)
> 58 µM: TGI (MDA-N)
> 46.4 µM: TGI (MOLT-4 leukemia) | TGI (CCRF-CEM leukemia)
> 68.8 µM: TGI (A549 NSCLC)
> 64.7 µM: TGI (LOX IMVI melanoma)
> 82 µM: TGI (SR leukemia)
> 56.1 µM: TGI (MDA-MB-435)
> 71.2 µM: TGI (HOP-62 NSCLC)
58 µM: TGI (SK-MEL-5 melanoma)
> 76.1 µM: TGI (HL-60(TB) leukemia)
> 76.4 µM: TGI (K-562 leukemia)
> 84.8 µM: TGI (MDA-MB-231 breast)
> 73.2 µM: TGI (MALME-3M melanoma)

COc1cc2c(c(OC)c1OC)-c1ccc(SC)c(=O)cc1[C@@H](NCc1ccc([N+](=O)[O-])cc1)CC2
0.0145 µM: TGI (COLO 205 colon)
51.2 µM: TGI (UACC-62 melanoma)
0.0119 µM: TGI (NCI-H522 lung)
0.00435 µM: TGI (KM20L2 colon)
0.00672 µM and 0.0112 µM: TGI (SF-539 CNS)
17.5 µM: TGI (SK-MEL-5 melanoma)
0.0105 µM: TGI (HCC-2998 colon)
inactive: GI50 (HOP-62 NSCLC) 0.429 µM | GI50 (OVCAR-5 ovarian) > 100 µM | GI50 (HOP-18 NSCLC) > 100 µM
0.0324 µM: TGI (HCT-15 colon)
37.5 µM: TGI (K-562 leukemia)
0.00781 µM: TGI (RXF 393 renal)
0.00735 µM: TGI (DMS 114 small cell lung)
0.00965 µM: TGI (OVCAR-3 ovarian)
1.06 µM: TGI (DMS 273 small cell lung)
active: GI50 (UACC-257 melanoma) 0.0771 µM
0.0134 µM: TGI (NCI-H226 lung)
0.011 µM: TGI (HT29 colon)
19 µM: TGI (SK-MEL-2 melanoma)
1.49 µM: TGI (HL-60(TB) leukemia)
> 100 µM: TGI (SNB-19 CNS) | TGI (SF-295 CNS) | TGI (SNB-75 CNS) | TGI (UACC-257 melanoma) | TGI (UO-31 renal) | TGI (LOX IMVI melanoma) | TGI (MOLT-4 leukemia) | TGI (SN12C renal) | TGI (HOP-62 NSCLC) | TGI (LXFL 529 NSCLC) | TGI (SNB-78 CNS) | TGI (EKVX NSCLC) | TGI (IGROV1 ovarian) | TGI (DLD-1 colon) | TGI (OVCAR-5 ovarian) | TGI (HOP-18 NSCLC) | TGI (A549 NSCLC) | TGI (HOP-92 NSCLC) | TGI (MALME-3M melanoma) | TGI (CAKI-1 renal) | TGI (RPMI-8226 leukemia) | TGI (M19-MEL melanoma) | TGI (786-0 renal) | TGI (ACHN renal) | TGI (SW-620 colon)
0.0341 µM: TGI (KM12 colon)
0.0531 µM: TGI (A498 renal)
